Assay results published in ChEMBL document CHEMBL4396913, “Synthesis and biological evaluation of hybrid quinolone-based quaternary ammonium antibacterial agents” (Eur J Med Chem, 2019).
≈ marks a conversion by molar mass, not a printed value.

Tests used:
[1] = Lipophilicity, log k of the compound at 100 ug/ml by micellar electrokinetic chromatography; format: physicochemical
Staphylococcus aureus [2] = experiment: Antibacterial activity against Staphylococcus aureus ATCC 6538 cultured in MH medium assessed as reduction in bacterial growth incubated for 48 hrs by microbroth dilution method; format: functional; settings: ATCC 6538, 48 h
Staphylococcus aureus [3] = experiment: Bactericidal activity against Staphylococcus aureus ATCC 6538 cultured in MH medium assessed as reduction in bacterial survival incubated for 48 hrs by microbroth dilution method; format: functional; settings: ATCC 6538, 48 h
Staphylococcus aureus [4] = experiment: Antibacterial activity against methicillin resistant Staphylococcus aureus N315 cultured in MH medium assessed as reduction in bacterial growth incubated for 48 hrs by microbroth dilution method; format: functional; settings: N315, 48 h
Staphylococcus aureus [5] = experiment: Bactericidal activity against methicillin resistant Staphylococcus aureus N315 cultured in MH medium assessed as reduction in bacterial survival incubated for 48 hrs by microbroth dilution method; format: functional; settings: N315, 48 h
[6] = system: Staphylococcus epidermidis; experiment: Antibacterial activity against Staphylococcus epidermidis ATCC 14990 cultured in MH medium assessed as reduction in bacterial growth incubated for 48 hrs by microbroth dilution method; format: functional; settings: ATCC 14990, 48 h
[7] = system: Staphylococcus epidermidis; experiment: Bactericidal activity against Staphylococcus epidermidis ATCC 14990 cultured in MH medium assessed as reduction in bacterial survival incubated for 48 hrs by microbroth dilution method; format: functional; settings: ATCC 14990, 48 h
Enterococcus hirae [8] = experiment: Antibacterial activity against Enterococcus hirae ATCC 1052 cultured in BHI medium assessed as reduction in bacterial growth incubated for 48 hrs by microbroth dilution method; format: functional; settings: ATCC 1052, 48 h
Bacillus spizizenii [9] = experiment: Antibacterial activity against Bacillus subtilis ATCC 6633 cultured in MH medium assessed as reduction in bacterial growth incubated for 48 hrs by microbroth dilution method; format: functional; settings: ATCC 6633, 48 h
Bacillus spizizenii [10] = experiment: Bactericidal activity against Bacillus subtilis ATCC 6633 cultured in MH medium assessed as reduction in bacterial survival incubated for 48 hrs by microbroth dilution method; format: functional; settings: ATCC 6633, 48 h
Escherichia coli [11] = experiment: Antibacterial activity against Escherichia coli ATCC 8739 cultured in MH medium assessed as reduction in bacterial growth incubated for 48 hrs by microbroth dilution method; format: functional; settings: ATCC 8739, 48 h
Escherichia coli [12] = experiment: Bactericidal activity against Escherichia coli ATCC 8739 cultured in MH medium assessed as reduction in bacterial survival incubated for 48 hrs by microbroth dilution method; format: functional; settings: ATCC 8739, 48 h
Pseudomonas aeruginosa [13] = experiment: Antibacterial activity against Pseudomonas aeruginosa ATCC 9027 cultured in MH medium assessed as reduction in bacterial growth incubated for 48 hrs by microbroth dilution method; format: functional; settings: ATCC 9027, 48 h
Pseudomonas aeruginosa [14] = experiment: Bactericidal activity against Pseudomonas aeruginosa ATCC 9027 cultured in MH medium assessed as reduction in bacterial survival incubated for 48 hrs by microbroth dilution method; format: functional; settings: ATCC 9027, 48 h
Proteus vulgaris [15] = experiment: Antibacterial activity against Proteus vulgaris NCTC 4635 cultured in MH medium assessed as reduction in bacterial growth incubated for 48 hrs by microbroth dilution method; format: functional; settings: NCTC 4635, 48 h
Proteus vulgaris [16] = experiment: Bactericidal activity against Proteus vulgaris NCTC 4635 cultured in MH medium assessed as reduction in bacterial survival incubated for 48 hrs by microbroth dilution method; format: functional; settings: NCTC 4635, 48 h
Staphylococcus aureus [17] = experiment: Antibacterial activity against methicillin resistant Staphylococcus aureus 6347 cultured in MH medium assessed as reduction in bacterial growth incubated for 48 hrs by microbroth dilution method; format: functional; settings: Staphylococcus aureus, 6347, 48 h
Staphylococcus aureus [18] = experiment: Bactericidal activity against methicillin resistant Staphylococcus aureus 6347 cultured in MH medium assessed as reduction in bacterial survival incubated for 48 hrs by microbroth dilution method; format: functional; settings: Staphylococcus aureus, 6347, 48 h
[19] = system: Staphylococcus epidermidis; experiment: Antibacterial activity against methicillin resistant Staphylococcus epidermidis ATCC 13199 cultured in MH medium assessed as reduction in bacterial growth incubated for 48 hrs by microbroth dilution method; format: functional; settings: ATCC 13199, 48 h
[20] = system: Staphylococcus epidermidis; experiment: Bactericidal activity against methicillin resistant Staphylococcus epidermidis ATCC 13199 cultured in MH medium assessed as reduction in bacterial survival incubated for 48 hrs by microbroth dilution method; format: functional; settings: ATCC 13199, 48 h
Streptococcus pneumoniae [21] = experiment: Antibacterial activity against Streptococcus pneumoniae cultured in MH medium assessed as reduction in bacterial growth incubated for 48 hrs by microbroth dilution method; format: functional
Serratia marcescens [22] = experiment: Antibacterial activity against Serratia marcescens ATCC 12795 cultured in MH medium assessed as reduction in bacterial growth incubated for 48 hrs by microbroth dilution method; format: functional; settings: ATCC 12795, 48 h
Serratia marcescens [23] = experiment: Bactericidal activity against Serratia marcescens ATCC 12795 cultured in MH medium assessed as reduction in bacterial survival incubated for 48 hrs by microbroth dilution method; format: functional; settings: ATCC 12795, 48 h
Escherichia coli [24] = experiment: Antibacterial activity against […] Escherichia coli ATCC 8739 assessed as reduction in bacterial growth incubated for 48 hrs in presence of 50 ug/ml […], PAbetaN by microbroth dilution method; format: functional; settings: ATCC 8739, 48 h
Escherichia coli [25] = experiment: Bactericidal activity against […] Escherichia coli ATCC 8739 assessed as reduction in bacterial survival incubated for 48 hrs in presence of 50 ug/ml […], PAbetaN by microbroth dilution method; format: functional; settings: ATCC 8739, 48 h
HEK293 [26] = experiment: Cytotoxicity against human HEK293 cells assessed as cell viability upto 20 uM incubated for 72 hrs by MTT assay; format: cell-based; settings: hek293, 72 h
HEK293 [27] = experiment: Cytotoxicity against human HEK293 cells assessed as changes in cell morphology upto 20 uM incubated for 72 hrs by MTT assay; format: cell-based; settings: hek293, 72 h
Enterococcus hirae [28] = experiment: Bactericidal activity against Enterococcus hirae ATCC 1052 cultured in BHI medium assessed as reduction in bacterial survival incubated for 48 hrs by microbroth dilution method; format: functional; settings: ATCC 1052, 48 h
Streptococcus pneumoniae [29] = experiment: Bactericidal activity against Streptococcus pneumoniae cultured in MH medium assessed as reduction in bacterial survival incubated for 48 hrs by microbroth dilution method; format: functional

| Structure (SMILES) | MIC (Staphylococcus aureus [2]) | MBC (Staphylococcus aureus [3]) | MIC (Staphylococcus aureus [4]) | MBC (Staphylococcus aureus [5]) | MIC [6] | MBC [7] | MIC (Enterococcus hirae [8]) | MIC (Bacillus spizizenii [9]) | MBC (Bacillus spizizenii [10]) | MIC (Escherichia coli [11]) | MBC (Escherichia coli [12]) | MIC (Pseudomonas aeruginosa [13]) | MBC (Pseudomonas aeruginosa [14]) | MIC (Proteus vulgaris [15]) | MBC (Proteus vulgaris [16]) | MIC (Staphylococcus aureus [17]) | MBC (Staphylococcus aureus [18]) | MIC (Streptococcus pneumoniae [21]) | MIC (Serratia marcescens [22]) | MBC (Serratia marcescens [23]) | other results |
| --- | --- | --- | --- | --- | --- | --- | --- | --- | --- | --- | --- | --- | --- | --- | --- | --- | --- | --- | --- | --- | --- |
| CC1=CC(C)=C(C(=O)O)C2=N[N+]3(CCN(c4cc5c(cc4F)c(=O)c(C(=O)O)cn5C4CC4)CC3)CN12.[Cl-] | 128 µg/mL | 128 µg/mL | 32 µg/mL | 32 µg/mL | 64 µg/mL | 64 µg/mL | > 512 µg/mL | 8 µg/mL | 8 µg/mL | 8 µg/mL | 8 µg/mL | 128 µg/mL | 128 µg/mL | 2000 ng/mL | 2000 ng/mL | 128 µg/mL | 128 µg/mL | > 512 µg/mL | 64 µg/mL | 64 µg/mL | log K [1]: -0.3214; MIC [19]: 4 µg/mL; MBC [20]: 8 µg/mL; MIC (Escherichia coli [24]): 0.5 µg/mL; MBC (Escherichia coli [25]): 2 µg/mL; Activity (HEK293 [26]): Non-Toxic; Activity (HEK293 [27]): Non-Toxic |
| C[C@@H]1CN(c2c(F)c(N)c3c(=O)c(C(=O)O)cn(C4CC4)c3c2F)C[C@H](C)N1 [SPARFLOXACIN] | 0.125 µg/mL (≈ 0.319 µM) | 0.25 µg/mL (≈ 0.637 µM) | 0.125 µg/mL (≈ 0.319 µM) | 0.125 µg/mL (≈ 0.319 µM) | 0.125 µg/mL (≈ 0.319 µM) | 0.125 µg/mL (≈ 0.319 µM) | 32 µg/mL (≈ 81.5 µM) | 0.063 µg/mL (≈ 0.161 µM) | 0.063 µg/mL (≈ 0.161 µM) | 0.016 µg/mL (≈ 0.0408 µM) | 0.032 µg/mL (≈ 0.0815 µM) | 0.125 µg/mL (≈ 0.319 µM) | 0.125 µg/mL (≈ 0.319 µM) | 4 ng/mL (≈ 0.0102 µM) | 8 ng/mL (≈ 0.0204 µM) | 0.063 µg/mL (≈ 0.161 µM) | 0.063 µg/mL (≈ 0.161 µM) | 0.25 µg/mL (≈ 0.637 µM) | 0.5 µg/mL (≈ 1.27 µM) | 1 µg/mL (≈ 2.55 µM) | log K [1]: 0.1161; MBC (Enterococcus hirae [28]): 32 µg/mL (≈ 81.5 µM); MIC [19]: 0.032 µg/mL (≈ 0.0815 µM); MBC [20]: 0.032 µg/mL (≈ 0.0815 µM); MBC (Streptococcus pneumoniae [29]): 128 µg/mL (≈ 326 µM) |
| COc1c(N2C[C@@H]3CCCN[C@@H]3C2)c(F)cc2c(=O)c(C(=O)O)cn(C3CC3)c12 [MOXIFLOXACIN] | 0.125 µg/mL (≈ 0.311 µM) | 0.125 µg/mL (≈ 0.311 µM) | 0.125 µg/mL (≈ 0.311 µM) | 0.25 µg/mL (≈ 0.623 µM) | 0.063 µg/mL (≈ 0.157 µM) | 0.125 µg/mL (≈ 0.311 µM) | 16 µg/mL (≈ 39.9 µM) | 0.032 µg/mL (≈ 0.0797 µM) | 0.032 µg/mL (≈ 0.0797 µM) | 0.125 µg/mL (≈ 0.311 µM) | 0.25 µg/mL (≈ 0.623 µM) | 16 µg/mL (≈ 39.9 µM) | 16 µg/mL (≈ 39.9 µM) | 4 ng/mL (≈ 0.00996 µM) | 8 ng/mL (≈ 0.0199 µM) | 0.063 µg/mL (≈ 0.157 µM) | 0.063 µg/mL (≈ 0.157 µM) | 16 µg/mL (≈ 39.9 µM) | 0.25 µg/mL (≈ 0.623 µM) | 0.5 µg/mL (≈ 1.25 µM) | MBC (Enterococcus hirae [28]): 32 µg/mL (≈ 79.7 µM); MBC (Streptococcus pneumoniae [29]): 64 µg/mL (≈ 159 µM) |
| CCn1cc(C(=O)O)c(=O)c2cnc(N3CCNCC3)nc21 [PIPEMIDIC ACID] | 64 µg/mL (≈ 211 µM) | 128 µg/mL (≈ 422 µM) | 32 µg/mL (≈ 105 µM) | 32 µg/mL (≈ 105 µM) | 32 µg/mL (≈ 105 µM) | 32 µg/mL (≈ 105 µM) | > 512 µg/mL | 2 µg/mL (≈ 6.59 µM) | 2 µg/mL (≈ 6.59 µM) | 2 µg/mL (≈ 6.59 µM) | 2 µg/mL (≈ 6.59 µM) | 8 µg/mL (≈ 26.4 µM) | 8 µg/mL (≈ 26.4 µM) | 4 ng/mL (≈ 0.0132 µM) | 4 ng/mL (≈ 0.0132 µM) | 32 µg/mL (≈ 105 µM) | 32 µg/mL (≈ 105 µM) | > 512 µg/mL | 2 µg/mL (≈ 6.59 µM) | 2 µg/mL (≈ 6.59 µM) | log K [1]: -0.1697; MIC [19]: 32 µg/mL (≈ 105 µM); MBC [20]: 64 µg/mL (≈ 211 µM) |
| CCn1cc(C(=O)O)c(=O)c2cc(F)c(N3CC[N+]4(CC3)CN3C(C)=CC(C)=C(C(=O)O)C3=N4)cc21.[Cl-] | 64 µg/mL | 128 µg/mL | 128 µg/mL | 128 µg/mL | 64 µg/mL | 128 µg/mL | > 512 µg/mL | 16 µg/mL | 64 µg/mL | 4 µg/mL | 8 µg/mL | 256 µg/mL | > 512 µg/mL | 250 ng/mL | 500 ng/mL | 64 µg/mL | 128 µg/mL | > 512 µg/mL | 64 µg/mL | 128 µg/mL | log K [1]: -0.2721; MIC [19]: 32 µg/mL; MBC [20]: 32 µg/mL; Activity (HEK293 [26]): Non-Toxic; Activity (HEK293 [27]): Non-Toxic |
